This passage reports IC50 results from patent publication US9051310B2, “Nicotinamide derivative or salt thereof” (FUJIFILM Corporation, priority 2011, dated 2015).

Assay [1] concerns the target T1, glutathione S-transferase (GST)-linked full-length human Syk protein (Homo sapiens, UniProt P43405).
T1 construct: glutathione S-transferase (GST)-linked full-length human Syk protein; purchased Carna Biosciences; host or cells: Baculovirus expression system
The experiment in a line: Syk enzyme assay. In kind it is biochemical. As to conditions: 0.83 nM Syk, time-resolved fluorescence; read-out: IC50 of Syk-inhibitory activity. The method in brief:
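Phosphotyrosine on a biotin-peptide substrate (0.5 μM) was read by time-resolved fluorescence at 615 and 665 nm with Eu-anti-pTyr antibody and APC-streptavidin after 1 h EDTA stop.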

In assay [2] the test system is THP-1 cells (TNFα secretion on human IgG-coated plate). Put plainly: TNFα generation assay. Type of assay: cell-based. As to conditions: IFN-γ differentiated THP-1 cells, 7 hours, AlphaLISA, read-out: IC50 of TNFα generation inhibitory activity. Here is the method:
THP-1 cells (2×10^5 cells/ml), which were human monocytoid cells, were cultured in the presence of 10 ng/ml IFN-γ (Roche) for 2 days, and they were induced to differentiate into macrophage-like cells. The differentiation-induced THP-1 cells were recovered, and the cells (1×10^6 cell/ml) were then allowed to react with a predetermined concentration of test compound at room temperature for 30 minutes. On the other hand, 100 μl of human IgG (10 μg/ml, SIGMA-ALDRICH) diluted with PBS was added to a 96-well plate, and it was then incubated at room temperature overnight. Thereafter, the resultant was washed with PBS twice to produce a human IgG-coated plate. A cell fluid that contained a compound was plated on the obtained human IgG-coated plate (5×10^4 cells/well), and it was then cultured for 7 hours. Thereafter, the cultured solution was recovered, and the amount of TNFα secreted into the culture solution was then measured by the AlphaLISA method (PerkinElmer).
(In general: Bead proximity is the source of the signal in Alpha formats.)

As to `C[C@H](N)[C@H](Nc1nc(Nc2cccc(-n3nccn3)c2)c(C(N)=O)cc1F)C1CC1` [Example 2-479, 2-((3-(2H-1,2,3-triazol-2-yl)phenyl)amino)-6-(((1R,2S)-2-amino-1-cyclopropylpropyl)amino)-5-fluoronicotinamide], the IC50 was less than 10 nM in assay [1] and 65 to 130 nM in assay [2].

Regarding `CC[C@@H](Nc1nc(Nc2cccc(-n3nccn3)c2)c(C(N)=O)cc1F)[C@H](C)N` [Example 2-475, 2-((3-(2H-1,2,3-triazol-2-yl)phenyl)amino)-6-(((2S,3R)-2-aminopentan-3-yl)amino)-5-fluoronicotinamide], the IC50 in assay [1] was less than 10 nM; in assay [2] it was 65 to 130 nM.

As for `Cc1nn(C)c2ccc(Nc3nc(N[C@@H]4CCOC[C@@H]4N)c(F)cc3C(N)=O)cc12` [Example 2-208, 6-(((3R,4R)-3-aminotetrahydro-2H-pyran-4-yl)amino)-2-((1,3-dimethyl-1H-indazol-5-yl)amino)-5-fluoronicotinamide], the figures for the IC50 in assay [1] and in assay [2] were less than 10 nM and less than 65 nM, respectively.

`CCOC[C@@H](Nc1nc(Nc2cccc3c2cnn3CC)c(C(N)=O)cc1F)[C@H](C)N` [Example 2-180, 6-(((2S,3S)-3-amino-1-ethoxybutan-2-yl)amino)-2-((1-ethyl-1H-indazol-4-yl)amino)-5-fluoronicotinamide]: the figures for the IC50 in assay [1] and in assay [2] were 10 to 50 nM and 130 to 200 nM, respectively.

Take `CCCC[C@@H](Nc1nc(Nc2ccc3c(c2)c(OC)nn3C)c(C(N)=O)cc1F)[C@H](C)N` [Example 2-83, 6-(((2S,3R)-2-aminoheptan-3-yl)amino)-5-fluoro-2-((3-methoxy-1-methyl-1H-indazol-5-yl)amino)nicotinamide]: the IC50 in assay [1] is less than 10 nM; in assay [2], 130 to 200 nM.

Take `CC(=O)c1cccc(Nc2nc(N[C@H](C3CC3)[C@H](C)N)c(F)cc2C(N)=O)c1` [Example 2-482, 2-((3-acetylphenyl)amino)-6-(((1R,2S)-2-amino-1-cyclopropylpropyl)amino)-5-fluoronicotinamide]: the IC50 in assay [1] is less than 10 nM; in assay [2], 65 to 130 nM.

Turning to `Cc1cnn(-c2cncc(Nc3nc(N[C@H](C4CC4)[C@H](C)N)c(F)cc3C(N)=O)c2)c1` [Example 2-519, 6-(((1R,2S)-2-amino-1-cyclopropylpropyl)amino)-5-fluoro-2-((5-(4-methyl-1H-pyrazol-1-yl)pyridin-3-yl)amino)nicotinamide], the IC50 in assay [1] was less than 10 nM; in assay [2], 130 to 200 nM.

Consider `CCn1ncc2c(Nc3nc(N[C@@H]4CCOC[C@@H]4N)c(F)cc3C(N)=O)cc(F)cc21` [Example 2-370, 6-(((3R,4R)-3-aminotetrahydro-2H-pyran-4-yl)amino)-2-((1-ethyl-6-fluoro-1H-indazol-4-yl)amino)-5-fluoronicotinamide], for which the values for the IC50 in assay [1] and in assay [2] were less than 10 nM and 130 to 200 nM, respectively.

With `CC[C@H](N)[C@@H](CC)Nc1nc(Nc2ccnc(OCCOC)c2)c(C(N)=O)cc1F` [Example 2-43, 6-(((3R,4S)-4-aminohexan-3-yl)amino)-5-fluoro-2-((2-(2-methoxyethoxy)pyridin-4-yl)amino)nicotinamide], the IC50 was less than 10 nM in assay [1] and 130 to 200 nM in assay [2].

Take `CC[C@H](N)[C@H](Nc1nc(Nc2cccc3c2cnn3C)c(C(N)=O)cc1F)C1CC1` [Example 2-546, 6-(((1R,2S)-2-amino-1-cyclopropylbutyl)amino)-5-fluoro-2-((1-methyl-1H-indazol-4-yl)amino)nicotinamide]: the IC50 in assay [1] is less than 10 nM; in assay [2] it was 130 to 200 nM.

`COCCn1ncc2c(Nc3nc(N[C@@H]4CCCC[C@@H]4N)c(F)cc3C(N)=O)cc(F)cc21` [Example 2-374, 6-(((1R,2S)-2-aminocyclohexyl)amino)-5-fluoro-2-((6-fluoro-1-(2-methoxyethyl)-1H-indazol-4-yl)amino)nicotinamide]: the values for the IC50 in assay [1] and in assay [2] were less than 10 nM and 130 to 200 nM, respectively.

Turning to `COCCn1nc(C)c2cc(Nc3nc(N[C@@H]4CCOC[C@@H]4N)c(F)cc3C(N)=O)ccc21` [Example 2-327, 6-(((3R,4R)-3-aminotetrahydro-2H-pyran-4-yl)amino)-5-fluoro-2-((1-(2-methoxyethyl)-3-methyl-1H-indazol-5-yl)amino)nicotinamide], the IC50 in assay [1] is less than 10 nM; in assay [2], 130 to 200 nM.

Regarding `Cc1ncc(Nc2nc(N[C@H](c3ccc(F)cc3)[C@H](C)N)c(F)cc2C(N)=O)cc1-n1nccn1` [Example 2-32, 6-(((1R,2S)-2-amino-1-(4-fluorophenyl)propyl)amino)-5-fluoro-2-((6-methyl-5-(2H-1,2,3-triazol-2-yl)pyridin-3-yl)ammo)nicotinamide], the IC50 in assay [1] is less than 10 nM; in assay [2] it was 130 to 200 nM.

As to `CC[C@H](N)[C@@H](C)Nc1nc(Nc2ccc3c(c2)c(OC)nn3C)c(C(N)=O)cc1F` [Example 2-84, 6-(((2R,3S)-3-aminopentan-2-yl)amino)-5-fluoro-2-((3-methoxy-1-methyl-1H-indazol-5-yl)amino)nicotinamide], the figures for the IC50 in assay [1] and in assay [2] were less than 10 nM and 130 to 200 nM, respectively.

For the compound `CCOC[C@@H](Nc1nc(Nc2ccc3c(cnn3CC)c2)c(C(N)=O)cc1F)[C@H](C)N` [Example 2-182, 6-(((2S,3S)-3-amino-1-ethoxybutan-2-yl)amino)-2-((1-ethyl-1H-indazol-5-yl)amino)-5-fluoronicotinamide], the results for the IC50 in assay [1] and in assay [2] were less than 10 nM and 65 to 130 nM, respectively.

Regarding `COc1cccc(Nc2nc(N[C@H](C3CCC3)[C@H](C)N)c(F)cc2C(N)=O)c1` [Example 2-27, 6-(((1R,2S)-2-amino-1-cyclobutylpropyl)amino)-5-fluoro-2-((3-methoxyphenyl)amino)nicotinamide], the IC50 in assay [1] was less than 10 nM; in assay [2] it was 65 to 130 nM.

In the case of `C[C@H](N)[C@H](Nc1nc(Nc2cnc(N3CCOCC3)c(F)c2)c(C(N)=O)cc1F)c1cccs1` [Example 2-508, 6-(((1S,2S)-2-amino-1-(thiophen-2-yl)propyl)amino)-5-fluoro-2-((5-fluoro-6-morpholinopyridin-3-yl)amino)nicotinamide], the results for the IC50 in assay [1] and in assay [2] were less than 10 nM and 65 to 130 nM, respectively.

Take `CC[C@H](N)[C@@H](C)Nc1nc(Nc2cc(F)cc3c2cnn3CCOC)c(C(N)=O)cc1F` [Example 2-378, 6-(((2R,3S)-3-aminopentan-2-yl)amino)-5-fluoro-2-((6-fluoro-1-(2-methoxyethyl)-1H-indazol-4-yl)amino)nicotinamide]: the figures for the IC50 in assay [1] and in assay [2] were less than 10 nM and 65 to 130 nM, respectively.

On to `COc1cc(Nc2nc(N[C@H](c3cccc(F)c3)[C@H](C)N)c(F)cc2C(N)=O)cc(OC)n1` [Example 2-414], for which the results for the IC50 in assay [1] and in assay [2] were less than 10 nM and 65 to 130 nM, respectively.

`CCn1ncc2cc(Nc3nc(N[C@H](c4cccc(F)c4)[C@H](C)N)c(F)cc3C(N)=O)ccc21` [Example 2-413]: the IC50 in assay [1] is less than 10 nM; in assay [2], 65 to 130 nM.

In the case of `CCCC[C@@H](Nc1nc(Nc2cnc(C)c(C)c2)c(C(N)=O)cc1F)[C@H](C)N` [Example 2-19, 6-(((2S,3R)-2-aminoheptan-3-yl)amino)-2-((5,6-dimethylpyridin-3-yl)amino)-5-fluoronicotinamide], the IC50 was less than 10 nM in assay [1] and 130 to 200 nM in assay [2].
